Reference: US20150050368A1, “METHOD FOR PRODUCING A PLANT EXTRACT FROM DESMODIUM AND ITS EXTRACT THEREOF” (priority 2012, published 2015)

Assays:
[1] = tested on: LPS-induced dendritic bone marrow cells; details: cited from earlier work
[2] = tested on: ethanol-induced liver injury; assay: protective effect against ethanol-induced liver injury in rats; format: in vivo, male Wistar rats
Description: The purpose of the experiment is to evaluate the hepatoprotective effects of decoct of Desmodium adscendens against ethanol-induced liver injury, standardized to its primary ingredient: D-pinitol. Materials and Methods: 66 male Wistar rats of 200-225 g (Charles River, Brussels, Belgium) were randomly divided into 6 groups: the negative control group (CON: no hepatotoxic agent, no treatment: 8 rats), the hepatotoxic group (HEP: induction of hepatotoxicity, no treatment: 20 rats), the Desmodium I group (induction of hepatotoxicity, treatment with Desmodium adscendens decoct, equivalent to 2 mg/kg of D-pinitol: 10 rats), the group II Desmodium (induction of hepatotoxicity, treatment with Desmodium adscendens decoct, equivalent to 10 mg/kg of D-pinitol: 10 rats), the D-pinitol group (PIN: induction of hepatotoxicity, treatment with 10 mg/kg of D-pinitol: 10 rats), the positive control group (SIL: induction of hepatotoxicity, treatment with 20 mg/kg of silymarin: 8 rats). 2 days prior to ethanol administration, an appropriate amount of lyophilized decoct, pinitol silymarin or suspended in water and administered by gavage (or vehicle for the control group). Hepatotoxicity was induced by daily oral gavage with a 55% ethanol solution (except for the negative control group). […] Ethanol was administered for a period of 7 weeks. Was administered daily, depending on the group, treated with the specific decoct, pinitol or silymarin (oral gavage) to the end of the experiment. For ethanol administration (default values), and at weeks 3, 4, 5 and 6, blood samples (1.5 ml) were taken from the lateral tail vein (Multi Fat 600, Sarstedt). This experiment was approved by the Ethics Committee for Animal Experiments of the University of Antwerpen (17-01-2011, 2010-37).
A schematic overview of the different treatment groups is given below next. Concentrations of enzyme aspartate transaminase (AST, GOT) and alanine transaminase (ALT, GPT) were in the serum samples from the test animals as determined by routine laboratory techniques (Senior, 2009). Elevated levels can be considered as an indication of liver cell destruction or a change in membrane permeability.
Statistics to analyze the difference between CON and HEP for AST and ALT, and between HEP and DES 1, DES 2, PIN and SIL for AST and ALT, was a mixed model analyze performed. The log-rank test was performed for statistical analysis of survival data.

OVA-induced asthma = details: mouse, in vivo; cited from earlier work
[3] = tested on: streptozotocin-induced diabetic mice; details: mouse, in vivo; cited from earlier work
[4] = tested on: severely insulin-resistant mice; details: mouse, in vivo; cited from earlier work
[5] = tested on: older, non-diabetic patients; details: intake for 6 weeks; cited from earlier work
L6 rat muscle cells = details: cited from earlier work
[6] = tested on: streptozotocin-induced diabetic rats; details: rat, in vivo; cited from earlier work
foam cells = details: cited from earlier work
[7] = tested on: insulin-resistant patients; details: 20 mg/kg/day for 4 weeks; cited from earlier work
neutrophils = details: cited from earlier work
[8] = tested on: liver injury induced by galactosamine; assay: preventive effect of Desmodium adscendens decoction against galactosamine-induced liver injury in rats; format: in vivo, Sprague Dawley rats; details: 48 h after D-galactosamine 650 mg/kg IP; oral gavage; Desmodium equivalent to 20 or 5 mg/kg D-pinitol, D-pinitol 20 mg/kg, silymarin 20 mg/kg
Description: As far as the in vivo evaluation of the hepato-protective effect of Desmodium adscendens decoction is concerned, D-pinitol has a hepato-protective effect. One of the constituents of Desmodium adscendens is D-pinitol. […] In this in vivo experiment the preventive effect of a decoction of Desmodium adscendens against liver injury induced by galactosamine was investigated in rats. Silymarin was used as the reference agent. Silymarin is a mixture of various flavanolignans from the fruits of the milk thistle plant, Silybum marianum. The principal components are silybin, […]. In addition, small quantities of isosilybin are present in milk thistle. […] The liver injury and the possible hepato-protective effect were evaluated by determining the following parameters in serum: ALT (=GPT), AST (=GOT), ALP. […] After administration of the hepatotoxic agent D-galactosamine, both after 24 h and after 48 h, liver injury was observed through a marked increase in the three parameters determined (control vs. hepatotox).

3T3-L1 adipocytes = details: cited from earlier work
[9] = in vivo; cited from earlier work
[10] = tested on: carrageenan-induced oedema of the paw; cotton pellet granuloma; details: cited from earlier work
[11] = tested on: patients with type 2 diabetes; details: cited from earlier work
[12] = tested on: liver injury with galactosamine; details: after induction of liver injury with galactosamine; cited from earlier work
[13] = after 4 weeks of ethanol, daily oral gavage, DES1 eq. 2, DES2 eq. 10 mg/kg D-pinitol, PIN 10 mg/kg, SIL 20 mg/kg
[14] = after 5 weeks of ethanol, daily oral gavage, DES1 eq. 2, DES2 eq. 10 mg/kg D-pinitol, PIN 10 mg/kg, SIL 20 mg/kg
[15] = after 6 weeks of ethanol, daily oral gavage, DES1 eq. 2, DES2 eq. 10 mg/kg D-pinitol, PIN 10 mg/kg, SIL 20 mg/kg
[16] = 13 weeks of treatment with 2×60 mg per day

In the case of CO[C@H]1[C@H](O)[C@@H](O)[C@@H](O)[C@H](O)[C@@H]1O [D-pinitol, 3-O-methyl-chiro-inositol], the “production of IL-12 and pro-inflammatory cytokines” value ([1]; LPS-induced) is listed as “reduces the production”, the “expression of MHC-I, MHC-II, CD80 and CD86” value ([1]; in vitro and in vivo) is listed as “decreases the expression” and the “survival of test animals” value ([2]; W0, DES1 eq. 2, DES2 eq. 10 mg/kg D-pinitol, PIN 10 mg/kg, SIL 20 mg/kg) is listed as 100%. The “survival of test animals” value ([2]; W1 of ethanol, DES1 eq. 2, DES2 eq. 10 mg/kg D-pinitol, PIN 10 mg/kg, SIL 20 mg/kg) was 100%, the “survival of test animals” value ([2]; W2 of ethanol, DES1 eq. 2, DES2 eq. 10 mg/kg D-pinitol, PIN 10 mg/kg, SIL 20 mg/kg) was 70% and the “survival of test animals” value ([2]; W3 of ethanol, DES1 eq. 2, DES2 eq. 10 mg/kg D-pinitol, PIN 10 mg/kg, SIL 20 mg/kg) was 60%. For the same molecule, the “survival of test animals” value ([2]; W4 of ethanol, DES1 eq. 2, DES2 eq. 10 mg/kg D-pinitol, PIN 10 mg/kg, SIL 20 mg/kg) was 60%, the “survival of test animals” value ([2]; W5 of ethanol, DES1 eq. 2, DES2 eq. 10 mg/kg D-pinitol, PIN 10 mg/kg, SIL 20 mg/kg) was 50% and the “survival of test animals” value ([2]; W6 of ethanol, DES1 eq. 2, DES2 eq. 10 mg/kg D-pinitol, PIN 10 mg/kg, SIL 20 mg/kg) was 40%. For the same molecule, the “survival of test animals” value ([2]; W6 of ethanol, DES1 eq. 2, DES2 eq. 10 mg/kg D-pinitol, PIN 10 mg/kg, SIL 20 mg/kg, listed as PIN) was 40%, the “Serum ALT ALT_4 Average” value [2, 13] was 75.9 and the “Serum AST AST_4 Average” value [2, 13] was 89.3 U/I. The “Serum ALT ALT_5 Mean” value [2, 14] was 61.6, the “Serum AST AST_5 Average” value [2, 14] was 78.3 U/I and the “Serum ALT ALT_6 Mean” value [2, 15] was 65.6. The “Serum AST AST_6 Mean” value [2, 15] was 86.3 U/I, the “statistical difference in survival vs the hepatotoxic group” value ([2]; log-rank test, 6 weeks, DES 1 eq. 2, DES 2 eq. 10 mg/kg pinitol, pinitol 10 mg/kg, silymarin 20 mg/kg) was “No statistically significant difference” and the “hyperreactivity and inflammation observed in asthma” value (OVA-induced asthma) was “reduces”. The “number of inflammatory cells in bronchoalveolar lavage fluid” value (OVA-induced asthma) was “decreases”, the hypoglycaemic effect [3] was “acute and chronic hypoglycaemic effect” and the efficacy [4] was “not effective”. The insulin-mediated glucose metabolism [5] was “no effect”, the “basal uptake of 2-deoxyglucose” value (L6 rat muscle cells; L6 muscle cells) was “increases the basal uptake of 2-deoxyglucose” and the “translocation of GLUT4 to the cell membrane” value (L6 rat muscle cells; L6 rat muscle cells) was “induces the translocation of GLUT4 to the cell membrane”. The “AST, ALT and alkaline phosphatase values in the liver” value [6] was “normalises”, the “blood glucose, haemoglobin and insulin” value [6] was “lowers blood glucose haemoglobin and increases insulin” and the effect on lipids [6] was “lipid-lowering effect”. For the same molecule, the “formation of foam cells” value (foam cells) was “moderately decreases”, the “basal and insulin-mediated glucose or lipid metabolism” value [7] was “no effect” and the TNF-alpha expression (neutrophils) was “inhibits TNF-alpha expression”. The “ALT (GPT) in serum compared with the hepatotoxic group” value [8] was “decreased significantly”, the “AST (GOT) in serum compared with the hepatotoxic group” value [8] was “decreased significantly” and the “expression of adiponectin mRNA” value (3T3-L1 adipocytes; 1 mM) was “increases expression of adiponectin mRNA”. For the same molecule, the “mRNA expression of GLUT4, IRS, PPARγ and C/EBP” value (3T3-L1 adipocytes; 0.5 and 1 mM) was “increases the mRNA expression”, the metabolism in humans [9] was “metabolised partly to D-chiro-inositol” and the “effect against acute inflammation” value ([10]; carrageenan-induced oedema of the paw) was “anti-inflammatory properties”. The “effect against subacute inflammation” value ([10]; cotton pellet granuloma) was “anti-inflammatory properties”, the HDL cholesterol values [11, 16] was “increased” and the “total cholesterol, LDL/HDL ratio and systolic and diastolic blood pressures” value [11, 16] was “decreased”. For the same molecule, the “fasting glucose values, HbA1c values and insulin” value ([11]; human, in vivo) was “favourable effect”, the “fasting and postprandial glucose values and HbA1c values” ([11]; uncontrolled type 2 diabetes, 12 weeks, 20 mg/kg/day, in addition to the usual therapy) was “improves” and the “levels of adiponectin, leptin, C-reactive protein (CRP) and free fatty acids” value ([11]; uncontrolled type 2 diabetes, 12 weeks, 20 mg/kg/day) was “does not significantly change”. For the same molecule, the “AST and ALT liver values and TNF-α values” [12] was “normalises” and the lipid peroxidation [12] was “reduces lipid peroxidation”.
